Here are results for 2 compounds from PMC11178805, “Ligand-based design of [^18F]OXD-2314 for PET imaging in non-Alzheimer’s disease tauopathies” (Nature Communications, 2024).

Series [1] has as its target T1, 4R-tau aggregates in CBD tissue (Homo sapiens, UniProt P10636).
T1 construct: tissue Neurodegenerative Disease Brain Bank at UCSF; host or cells: human CBD brain, middle frontal gyrus (pool of three) or putamen (one subject)
In words: Competition binding vs [^3H]OXD-2314 in CBD tissue. The method, then: (§1) Fresh frozen, autopsy-confirmed human PD anterior cingulate cortex brain tissue blocks (1 cm^3) were obtained from Dr. Thomas Beach at Banner/Sun Health AZ with funding from the Michael J. Fox Foundation and contained frequent α-synuclein aggregates and no other detectable aggregated amyloid species. The frozen tissue blocks were prepared for the binding assays as previously described[47],[48], except that equal quantities of the homogenates of three AD brains (AD1-AD3, Table S1) were pooled, as were homogenates from three PSP brains (PSP1-PSP3), three CBD brains (CBD1-CBD3), three Pick’s brains (PiD1-PiD3), and 4 PD brains (PD1-PD4) in order to help minimize the inter-subject variability within the different neuropathological groups. Individual subcortical brain tissues from a PSP subject (PSP4) and a CBD subject (CBD4), as well as with the middle frontal cortex of a control subject, were prepared for the binding assays as previously described[47],[48].
(§2) The equilibrium inhibition constant (Ki) values of the unlabeled compounds were determined versus tritium-labeled radioligands using published methods.

Another series has as its target T2, aggregated Aβ (Homo sapiens, UniProt P05067).
T2 construct: tissue Neurodegenerative Disease Brain Bank at UCSF; host or cells: human AD brain, middle frontal gyrus, pooled homogenate
In words: Competition binding vs [^3H]PiB in AD tissue homogenates. To be noted: n = 3. As for the experimental part: as §1, §2

The target in another series is T3, 5-lipoxygenase (Homo sapiens, UniProt P09917).
T3 construct: purchased Eurofins, France (contract screening)
T3 sequence (P09917 1-674): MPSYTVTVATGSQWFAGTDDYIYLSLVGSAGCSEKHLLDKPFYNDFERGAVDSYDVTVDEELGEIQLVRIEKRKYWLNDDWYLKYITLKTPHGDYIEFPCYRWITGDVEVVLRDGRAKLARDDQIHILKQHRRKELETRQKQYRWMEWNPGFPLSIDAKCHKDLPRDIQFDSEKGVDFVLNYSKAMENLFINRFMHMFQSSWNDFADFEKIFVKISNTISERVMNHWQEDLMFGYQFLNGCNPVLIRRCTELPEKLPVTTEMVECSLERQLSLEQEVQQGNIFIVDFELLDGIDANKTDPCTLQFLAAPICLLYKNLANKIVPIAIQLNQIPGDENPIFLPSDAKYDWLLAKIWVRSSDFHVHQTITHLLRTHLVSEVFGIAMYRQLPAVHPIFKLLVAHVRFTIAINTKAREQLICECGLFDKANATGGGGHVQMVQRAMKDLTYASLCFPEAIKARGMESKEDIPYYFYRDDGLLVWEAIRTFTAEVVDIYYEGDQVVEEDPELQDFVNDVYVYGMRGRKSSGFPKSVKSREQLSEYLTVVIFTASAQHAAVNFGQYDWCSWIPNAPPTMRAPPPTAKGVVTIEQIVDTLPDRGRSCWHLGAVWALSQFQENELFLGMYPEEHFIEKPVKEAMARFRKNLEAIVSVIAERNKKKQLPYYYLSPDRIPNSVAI
Description: In vitro pharmacology enzyme screen (Eurofins): 5-lipoxygenase. It counts as biochemical. As for the experimental part: OXD-2314 binding to CNS receptors was calculated as a percentage of inhibition of a receptor-specific radioligand. Enzyme inhibition was calculated as the percent inhibition of baseline enzyme activity where inhibition above 50% was considered significant. […] Norepinephrine transports are expressed in low concentration throughout the brain and its relative concentration are not affected by aging or neurodegeneration. 5-lipoxygenase may be overexpressed in aging brain and play some role in neurodegeneration, which could be necessary to further investigate in vivo[42]. Off-target binding to monoamine oxidase A and B (MAO-A and MAO-B) has been seen with some tau PET radiotracers[43],[44].

The nature of series [2]: Whole-body PET-CT biodistribution and dose estimation in rats. In kind it is in vivo. An excerpt:
Six rats (3 male, 19.9 ± 6.2 MBq; and 3 female, 20.8 ± 3.2 MBq) were imaged using PET-CT for whole-body biodistribution of radioactivity and dose estimation using standard mass and density of the organs for adult male and female subjects, respectively (Figure S17). […] The estimated whole-body effective dose was 21.3 ± 3.1 and 22.5 ± 0.9 µSv/MBq for adult male and female models, respectively, with the highest absorbed dose of 50.6 ± 16.9 µGy/MBq in the large intestine.
A total of 8 healthy adult rats (Sprague-Dawley, 384 ± 56 g; 4/4 M/F) underwent PET imaging following bolus injection of [^18F]OXD-2314 (20.5 ± 4.1 MBq), with two animals (M/F) scanned for 120 min with the head in the centre of PET field-of-view (FOV) whereas six animals (3/3 M/F) scanned for 180 min at three bed positions (head-to-bottom) with 15 frames (2×15 s, 2×30 s, 2×60 s, 1×120 s, 1×180 s, 2×240 s, 2×300 s, and 3×600 s) to cover the whole body. PET images were acquired using a nanoScan™ PET/CT scanner (Mediso, Budapest, Hungary) with rats anesthetized under isoflurane in O2 (1.5–2%, 1 L/min) throughout the imaging session and monitored closely for body temperature and respiration rate. A scout CT was acquired for PET FOV positioning, then a material map CT image was acquired for PET corrections of attenuation and scatter and for PET/CT co-registration to define anatomic brain regions of interest. For the brain scans, aacquired list-mode data were sorted into thirty-nine three-dimensional (3D) (3×5 s, 3×15 s, 3×20 s, 7×60 s, 17×180 s, and 6×600 s), true sinograms (ring difference 84). The 3D sinograms were converted in 2D sinograms using Fourier rebinning with corrections for detector geometry, efficiencies, attenuation, and scatter before image reconstruction using 2D filtered back projection with a Hann filter at a cut-off of 0.50 cm^−1. The analytical reconstruction was also used for dose assessment of the multi-frame whole-body images. All data were corrected for dead time and were decay-corrected to the start of acquisition. Iteratively reconstructed images with the manufacturer’s proprietary 3D algorithm (6 subsets, 4 iterations) were used for PET and CT co-registration, for co-registration of subject’s CT with a stereotactic MR atlas of brain[51], for organ region-of-interest (ROI) placement, and for presentation in figures. Filtered back projection images were used to extract regional brain and organ time-activity curves (TACs) with VivoQuant® 2020 software (Invicro, Needham, MA, USA) and Amide (1.0.4)[52]. The selected organs (a total of 12) include brain, lungs, heart wall, heart content, liver, stomach content, spleen, kidneys, small intestine content, upper large intestine content, lower large intestine content, and urinary bladder content. Normalized cumulated activities of each organ were calculated using trapezoidal integration of the area under the TACs plus extrapolation of the TAC to infinity with natural decay of the radiotracer. Dose assessment was performed with OLINDA/EXM 1.1 to calculate the effective dose and the effective dose equivalent. SUV were calculated by normalizing regional radioactivity for injected radioactivity and body weight.

SMILES strings stand for the structures.

T2 sequence (P05067 672-713 limits assumed): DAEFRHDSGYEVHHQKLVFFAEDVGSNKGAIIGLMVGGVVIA
T1 sequence (P10636 1-441 isoform P10636-8): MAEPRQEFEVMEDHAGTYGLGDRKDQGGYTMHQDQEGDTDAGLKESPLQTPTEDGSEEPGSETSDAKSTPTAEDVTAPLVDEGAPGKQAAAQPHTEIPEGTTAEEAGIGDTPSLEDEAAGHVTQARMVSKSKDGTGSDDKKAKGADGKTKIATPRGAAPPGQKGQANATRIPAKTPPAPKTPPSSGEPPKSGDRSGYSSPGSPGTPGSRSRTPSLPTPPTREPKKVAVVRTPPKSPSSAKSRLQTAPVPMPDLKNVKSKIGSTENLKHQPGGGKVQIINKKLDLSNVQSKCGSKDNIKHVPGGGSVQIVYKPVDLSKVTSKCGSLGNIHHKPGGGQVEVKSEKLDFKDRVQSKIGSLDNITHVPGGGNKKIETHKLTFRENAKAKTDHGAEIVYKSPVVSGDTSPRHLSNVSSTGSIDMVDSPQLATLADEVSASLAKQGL

Usually Ki stands for the equilibrium dissociation constant of an inhibitor or competing ligand from its target. The term inhibition denotes the drop in the measured response relative to a control, in per cent. Take `COC1CCCN(c2ccc(-c3cc4cc(O)ccc4[nH]3)c(F)n2)C1` (stereo not drawn) [OXD-2314, 2-(2-fluoro-6-(3-methoxypiperidin-1-yl)pyridin-3-yl)-1H-indol-5-ol]: the inhibitory constant (Ki) was determined as 6.5 ± 0.4 nM in series [1] and 161 ± 34 nM on aggregated Aβ. Also, 10 µM produced 50.1% inhibition at 5-lipoxygenase.

With `CO[C@H]1CCCN(c2ccc(-c3cc4cc(O)ccc4[nH]3)c([18F])n2)C1` [[^18F]OXD-2314], the “estimated whole-body effective dose” value in series [2] (adult female model, from rat data) was 22.5 ± 0.9 µSv/MBq. Also, the “estimated whole-body effective dose” value in series [2] (adult male model, from rat data) is on record as 21.3 ± 3.1 µSv/MBq. Moreover, in series [2] (from rat data), the “highest absorbed dose, large intestine” value is on record as 50.6 ± 16.9 µGy/MBq. Moreover, in series [2] (rats, n = 6), the “uptake of radioactivity (normalized cumulated activity), large intestines” value was 0.067 ± 0.032 MBqOrgan⋅hr/MBqInjected; the “uptake of radioactivity (normalized cumulated activity), liver” value is reported as 0.147 ± 0.023 MBqOrgan⋅hr/MBqInjected; the “uptake of radioactivity (normalized cumulated activity), small intestine” value is on record as 0.075 ± 0.019 MBqOrgan⋅hr/MBqInjected.
